Measurements: patent US4512986A, “Progrestationally active steroids” (priority 1983, dated 1985)
Several values for one entry are separate records, joined by “and”; a condition that tells them apart may be missing. Equal values may be shown once. Entries after “also recorded” stand apart in the source; their conditions may differ.

Legend:
estrous cycle of rats = test: Suppression of estrous cycles in rats; assay type: in vivo, rat; settings: sc, 10 days
Protocol: A control group was treated in parallel with 0.2 ml peanut oil per day. Treatment commenced at metestrus and vaginal smears were taken each morning during the 10-day treatment period and for 16 to 18 days thereafter.

[1] = test system: uterine endometrium of estrone-primed immature rabbits; test: Clauberg assay (progestational activity, McPhail); assay type: in vivo, rabbit (New Zealand White); settings: for McPhail Index (0-4) (X ± S.D.): 0 none, 4 maximal
cycling rats = test: Blockade of ovulation in rats; assay type: in vivo, rat (Charles River CD); settings: for No. Rats Ovulated (of rats treated) / No. of Oviductal Eggs in Rats that Ovulated (X ± S.D.): single sc
From the text: The treated rats were sacrificed on the morning of expected estrus and eggs, if present, were flushed from the oviducts and counted. | *This assay employs cycling Charles River CD rats. For methods refer to | Beattie, C. W. and A. Corbin, Endocrinology 97, 885, 1975. […] | diestrus. Rats were sacrificed 43 to 44 hr later on the morning of | expected estrus. Eggs, if present, were flushed from oviducts and counted | under a stereomicroscope.

## C#C[C@]1(C(C)=O)CC[C@H]2[C@@H]3CCC4=CC(=O)CC[C@]4(C)[C@H]3CC[C@@]21C [17α-Ethynylprogesterone, 17α-ethynylprogesterone]
Estrous cycle of rats; 50 μg/day
  estrous cycle during treatment, in words: continued regular four-day cycles during treatment
Estrous cycle of rats; 100 μg/day
  estrous cycle during treatment, in words: estrous cycles were disrupted; also recorded: some degree of follicular development occurred, but that ovulation was inhibited during treatment
Estrous cycle of rats; 250 μg/day
  estrous cycle during treatment, in words: estrous cycles were disrupted
Estrous cycle of rats; 500 μg/day
  estrous cycle during treatment, in words: estrous cycles were disrupted; also recorded: follicular development and ovulation were effectively suppressed
[1]; compound given orally, progesterone sc
  progestational potency relative to subcutaneous progesterone, in words: progestational activity equivalent to subcutaneous progesterone
[1]; compound given sc
  progestational potency relative to progesterone (sc): 13 times
[1]; oral, 10 μg/rabbit daily
  Uterine Weight (X ± S.D.): 0.94 ± 0.09 g
  McPhail Index (0-4) (X ± S.D.): 0.08 ± 0.11
[1]; oral, 20 μg/rabbit daily
  Uterine Weight (X ± S.D.): 0.98 ± 0.18 g
  McPhail Index (0-4) (X ± S.D.): 0.04 ± 0.06
[1]; oral, 50 μg/rabbit daily
  Uterine Weight (X ± S.D.): 0.86 ± 0.02 g
  McPhail Index (0-4) (X ± S.D.): 0.00 ± 0.00
[1]; oral, 100 μg/rabbit daily
  Uterine Weight (X ± S.D.): 1.79 ± 0.63 g and 1.13 ± 0.24 g
[1]; oral, 100 μg/rabbit/day
  progestational response, in words: inactive; also recorded: near the oral threshold dose
[1]; oral, 200 μg/rabbit daily
  Uterine Weight (X ± S.D.): 1.67 ± 0.33 g
  McPhail Index (0-4) (X ± S.D.): 1.40 ± 1.50
[1]; oral, 400 μg/rabbit daily
  Uterine Weight (X ± S.D.): 1.70 ± 0.50 g
  McPhail Index (0-4) (X ± S.D.): 1.80 ± 1.70
[1]; oral, 200 and 400 μg/rabbit/day
  progestational response, in words: partial progestational responses
[1]; sc, 2.5 μg/rabbit daily
  Uterine Weight (X ± S.D.): 0.90 ± 0.06 g
  McPhail Index (0-4) (X ± S.D.): 0.17 ± 0.23
[1]; sc, 2.5 μg/rabbit/day
  progestational response, in words: inactive
[1]; sc, 5 μg/rabbit daily
  Uterine Weight (X ± S.D.): 1.63 ± 0.45 g
  McPhail Index (0-4) (X ± S.D.): 1.50 ± 0.54
[1]; sc, 5 μg/rabbit/day
  progestational response, in words: partial progestational response
[1]; sc, 10 μg/rabbit daily
  Uterine Weight (X ± S.D.): 3.23 ± 0.83 g
  McPhail Index (0-4) (X ± S.D.): 3.83 ± 0.12
[1]; sc, 20 μg/rabbit daily
  Uterine Weight (X ± S.D.): 4.41 ± 0.33 g
  McPhail Index (0-4) (X ± S.D.): 4.00 ± 0.00
[1]; sc, 50 μg/rabbit daily
  Uterine Weight (X ± S.D.): 5.54 ± 0.18 g
  McPhail Index (0-4) (X ± S.D.): 4.0 ± 0.00
[1]; sc, 100 μg/rabbit daily
  Uterine Weight (X ± S.D.): 4.19 ± 0.22 g
  McPhail Index (0-4) (X ± S.D.): 4.0 ± 0.00
[1]; sc, 200 μg/rabbit daily
  Uterine Weight (X ± S.D.): 4.99 ± 0.89 g
  McPhail Index (0-4) (X ± S.D.): 4.0 ± 0.00
[1]; sc, 400 μg/rabbit daily
  Uterine Weight (X ± S.D.): 5.90 ± 1.75 g
  McPhail Index (0-4) (X ± S.D.): 4.0 ± 0.00
[1]; sc, 10 and 20 μg/rabbit/day
  progestational response, in words: maximal progestational responses
[1]; sc, 50, 100, 200 and 400 μg/rabbit/day
  progestational response, in words: full progestational responses
Cycling rats; 500 μg progesterone, 100, 250 or 500 μg 17α-ethynylprogesterone
  ovulation, in words: ovulation was blocked in most rats
Cycling rats; 100 or 250 μg progesterone, 50 μg 17α-ethynylprogesterone
  ovulation, in words: ovulated in a normal fashion
Cycling rats; comparison with literature
  potency in blocking ovulation relative to (±)-norgestrel, in words: equipotent with (±)-norgestrel
Cycling rats; sc
  potency in blocking ovulation relative to progesterone, in words: about five times as potent as progesterone
Cycling rats; 50 μg/rat
  No. Rats Ovulated (of rats treated): 4/5
  No. of Oviductal Eggs in Rats that Ovulated (X ± S.D.): 10.5 ± 2.1
Cycling rats; 100 μg/rat
  No. Rats Ovulated (of rats treated): 1/5
  No. of Oviductal Eggs in Rats that Ovulated (X ± S.D.): 3.0
Cycling rats; 250 μg/rat
  No. Rats Ovulated (of rats treated): 1/5
  No. of Oviductal Eggs in Rats that Ovulated (X ± S.D.): 6.0
Cycling rats; 500 μg/rat
  No. Rats Ovulated (of rats treated): 0/5
  No. of Oviductal Eggs in Rats that Ovulated (X ± S.D.): 0.0
